A melting point compilation (Tetko et al.; mined from patent text by program, amines drawn as free bases though some values may be those of a salt)

SMILES | melting point
CC1(C)CCC(C)(C)c2cc(-c3nnc(-c4ccc(C(N)=O)cc4)o3)ccc21 | 272 to 274 °C
Cc1ccccc1C=C1CCn2c1nc1ccc(C#N)cc1c2=O | 234 to 236 °C
O=C(c1ccccc1)N1CCCSC1=C[N+](=O)[O-] | 90 to 92 °C
CCOc1cc2c(Cl)c(C#N)cnc2cc1NC(C)=O | 202 to 204 °C
O=CCC1Cc2ccc(Cl)cc2C1=O (racemic) | 80 °C
OC(CNC1=NCCN1)c1ccc(Cl)cc1 (stereo not drawn) | 156 to 158 °C
CC(=O)N1c2ccc(O)cc2C(C)=CC1(C)C | 214 to 216 °C
COc1ccc(C(Cc2cnccn2)c2ccccc2)cc1OC1CCCC1 (stereo not drawn) | 71.5 to 72 °C
C=CCOn1c(=O)c2cc(F)c(N3CCCC3)cc2n(Cc2ccccc2)c1=O | 148 to 150 °C
CC(=O)c1c(C)[nH]c(CC(C)C)c1C | 150 to 152 °C
Cn1cccc1-c1cc2cccnc2[nH]1 | 183 °C
Cc1cc(C)c(Nc2ccnc(Nc3ccc(C#N)cc3)n2)c(C)c1 | 217 to 218 °C
O=[N+]([O-])c1cc2c(c3c([N+](=O)[O-])cccc13)C(CCl)CN2 (stereo not drawn) | 130 to 131 °C
COc1cc(Nc2nccc(-c3ccc(NCC(C)(C)CN(C)C)nc3)n2)cc(OC)c1OC | 125 °C
COC(=O)c1nn2c(C)csc2c1SSc1c(C(=O)OC)nn2c(C)csc12 | 193 to 194 °C
O=C1c2ccccc2Cc2c1ccc(Cl)c2O | 186 to 188 °C
CNC(=O)NC(=O)C(CC1CCCC1)c1ccc(C(F)(F)F)c(F)c1 (stereo not drawn) | 187 to 189 °C
Clc1ccc(CCC(Cn2ccnc2)OCc2ccc(Cl)c(Cl)c2)cc1 (stereo not drawn) | 87.5 to 89.5 °C
Cc1c(C)c(S(=O)(=O)C[N+](=O)[O-])c(C)c2c1OCCC2 | 104 to 106 °C
CC1(C)OC(=O)[C@@H](CC=O)O1 | 37 to 38 °C
COC(=O)c1nc(C)c(-c2ccnc3ccccc23)s1 | 116 to 117 °C

SMILES | melting point
COc1cc(C2c3cc4c(cc3C(NC3=CC(=O)N(Cc5ccc(C(F)(F)F)cc5)C3=O)C3COC(=O)C23)OCO4)cc(OC)c1O (stereo not drawn) | 184 to 186 °C
Cc1ccc2nc(-c3ccc(N)c(I)c3)sc2c1 | 176 to 178 °C
OCCC[C@H]1OC[C@H](c2ccc(Cl)c3ccccc32)CO1 | 127 to 129 °C
O=[N+]([O-])c1cccc2c1C1OC1CC2 (stereo not drawn) | 67 °C
NP(N)(=O)NC(=O)c1cccnc1 | 280 to 283 °C
Oc1cccc(C2CCCN(CCc3c[nH]c4ccccc34)C2)c1 (stereo not drawn) | 130 to 135 °C
CC(C=Cc1ccccc1-c1cc2c(cc1C)C(C)(C)CCC2(C)C)=CC(=O)O | 181 to 182 °C
CN(C)/C=C/C(=O)c1ccc(C(F)(F)F)cc1 | 96.5 to 98 °C
O=C1c2ccc(N=C(c3ccccc3)N3CCCCC3)cc2C(=O)c2ccc(N=C(c3ccccc3)N3CCCCC3)cc21 | 264 to 266 °C
CCCc1nc(-c2ncn3c2COC(=O)c2c(Cl)cccc2-3)no1 | 130 to 132 °C
O=C(O)c1nc2n(n1)-c1cccnc1N(C1CCCCC1)C2 | 170 to 176 °C
CCCCCN(O)C(=O)Nc1ccc(Cl)c(Cl)c1 | 88 °C
COc1cc2ccc3nc4ccccc4cc3c2cc1OC | 190 to 192 °C
CCN1CCCC1CNC(=O)c1cc(OCC(F)(F)F)ccc1OCC(F)(F)F (stereo not drawn) | 78 to 80 °C
CC1(C)CC2(CC(C)(C)N1c1nc(N(CCO)CCO)nc(N3CCOCC3)n1)OCCO2 | 135 to 140 °C
Cc1ccc(C(O)(c2ccccc2)c2ccncc2)cc1 (stereo not drawn) | 192 to 195 °C
CCCC[C@]1(CC)CS(=O)(=O)c2cc(OC)c(Br)cc2[C@@H](c2ccccc2)N1 | 132 to 134 °C
CN1CCC(OC2c3ccccc3CCn3c2nc(-c2ccccc2)c3C=O)CC1 (stereo not drawn) | 70 °C
O=C(C=NO)Nc1cc(Cl)cc(Cl)c1 | 196 to 197 °C
Cn1c(C(F)(F)F)cc(=O)n(-c2ccc3snc(N4CCOCC4)c3c2)c1=O | 200 to 205 °C

Continued, values first:

melting point | SMILES
107 °C | CCOC(=O)C1(Nc2ccc(C(O)(C(F)(F)F)C(F)(F)F)cc2)CCC(C(C)(C)C)CC1 (stereo not drawn)
165 to 167 °C | COCc1c(C(=O)OCCO)ncc2[nH]c3ccc(OCc4ccccc4)cc3c12
150 °C | COC(=O)[C@@H]1CCN1S(=O)(=O)c1ccc(Cl)c(CBr)c1Cl
32 to 33 °C | C=C(C)COc1ccc(C=CC(=O)OCCCC)cc1
181 to 184 °C | CC(C)(COc1ccc2ncnn2n1)CS(N)(=O)=O
258 to 260 °C | CC(=O)c1ccc(NC(=O)Nc2ccc(S(N)(=O)=O)cc2)cc1
204 to 205 °C | O=C(O)c1ccn(-c2ccc(F)cc2)c1
148 to 149 °C | O=C(NCCO)c1cccc(-c2cccc3c2CN(Cc2cccc(C(F)(F)F)c2)C3=O)c1
247 to 248 °C | CN(C)c1ccc(C(=O)Nc2cn3cc(-n4ccnc4)ccc3n2)cc1
197 to 198 °C | O=C(N[C@H](Cc1ccc(C(F)(F)F)cc1)[C@@H](O)c1ccc(F)c(F)c1)c1ccc(F)c2ccccc12 (racemic)
69 °C | CC(C)(SCC(=O)O)C(NS(=O)(=O)c1ccc(Oc2ccc(F)cc2)cc1)C(=O)O (stereo not drawn)
228 °C | CSC[C@H](NCc1cc(Br)ccc1N)C(=O)O
131 to 133 °C | CC(=O)C(=NNc1ccccc1)C(=O)N(C)C
158 to 160 °C | C#CCn1nc(-c2ccc(S(C)(=O)=O)cc2)c(-c2ccc(F)cc2)c1C(F)(F)F
62.5 to 64.5 °C | CCCC(=NOc1ccc(Cl)cc1)c1cc(Cl)ccc1NS(=O)(=O)C(F)(F)F
218 to 220 °C | CC(C)(C)CC(C)(C)c1cc(N=Nc2cc(C(=O)O)ccc2Cl)c(O)c(C(C)(C)c2ccccc2)c1
230 °C | CCOC(=O)c1c(Cc2ccccc2)c2ccccc2[nH]c1=O
114 to 116 °C | CCS(=O)(=O)N(c1ccc(F)cc1Br)S(=O)(=O)CC
66.6 to 70 °C | O=C1NC(=O)C(Cc2ccc(OCCn3cc(C(c4ccccc4)(c4ccccc4)c4ccccc4)c4ccccc43)cc2)S1 (stereo not drawn)

melting point | SMILES
146 to 148 °C | CC(C)Oc1ccc(C(=O)N2CCNC2=Nc2c(Cl)cccc2Cl)cc1
207 to 208 °C | CC(C)n1nc(-c2cc(Cl)c(N)nc2-c2ccccc2)ccc1=O
50 to 53 °C | CCCc1c(OCCCOc2ccc(C(C)=O)c(OCCCC(=O)O)c2CCC)ccc(C(C)=O)c1O
113 to 116 °C | CS(=O)(=O)c1nccc(Oc2ccccc2)n1
138 to 140 °C | COCc1cn(-c2cccc(C(F)(F)F)c2)nc(C(=O)OC)c1=O
180 °C | COc1ccc(CN(C)CCCc2ccc(NC(=O)c3cccc4c(=O)c5cccc(OC)c5[nH]c34)cc2)cc1OC
> 300 °C | O=C(O)c1ccc(-c2cc3cccnc3c(-c3cccc4nonc34)n2)cc1
180 to 182 °C | CCNC(C)CCC1(C(N)=O)c2ccccc2-c2ccccc21 (stereo not drawn)
152 to 154 °C | C[C@H]1C(=O)Nc2c(N)cc(Cl)cc2N1C(=O)OCc1ccccc1
134 to 135 °C | COc1ccc(CNc2nc(C)c(-c3ccncc3)s2)cc1OC
151 to 153 °C | COc1cccc(/C(=C/C=C/C(=O)O)c2cccc(F)c2)c1
102 to 104 °C | CC(C)(C)NS(=O)(=O)c1ccc([Si](C)(C)C)s1
163 to 166 °C | CC(C)(C)OC(=O)C1CCCN1Cc1ccc2cc(NC(=O)c3ccc(-c4ccc(Cl)cc4)cc3)ccc2n1 (stereo not drawn)
108 to 109 °C | CC(C)(C)OC(=O)N(Cc1ccccc1)[C@H](COP(=O)(Oc1ccccc1)Oc1ccccc1)C(=O)O
150 °C | CCOc1cc(CC)ccc1C1CCN(CCCCNC(=O)c2sc(-c3ccc(C(F)(F)F)cc3)nc2CO)CC1
82 to 83 °C | COc1ccc(C2CC(=O)c3c(C)coc3C2)cc1 (stereo not drawn)
148 to 149 °C | CC(=O)NCc1ccc2ccn(C3CCN(CCc4ccc(Cl)cc4)CC3)c2c1
160 to 162 °C | CC(C)c1ccc2c(c1)C=C(C(=O)O)CC2
127 to 130 °C | NC(=O)c1c(N)cccc1OCCOc1ccccc1

melting point | SMILES
121 to 124 °C | CC(=O)CCN1C[C@H]2Cc3ccccc3[C@H](c3ccccc3)[C@H]2C1 (racemic)
> 340 °C | O=C(NCc1ccncc1)c1cc2ccnc(Cl)c2[nH]1
63 to 65 °C | CS(=O)(=O)Nc1c(Br)cnn1-c1ccc(C(F)(F)F)cc1Cl
173 to 177 °C | COc1ccc(N2Cc3cnc(Nc4ccc(F)cc4)nc3N([C@@H](C)CO)C2=O)c(F)c1
123 to 125 °C | CC(C)(C)N1CC(c2ccc([N+](=O)[O-])cc2)OC1=O (stereo not drawn)
137 to 138 °C | Cc1cc(C)n(C(=O)C(Cc2ccccc2)NS(=O)(=O)c2ccc(Cl)cc2)n1 (stereo not drawn)
126 °C | O=CC1=CC(c2ccccc2)(c2ccccc2)CCC1=O
178 to 183 °C | O=C(O)CCc1ccc(Oc2ccc3c(c2)S(=O)(=O)NC2CCCN32)cc1 (stereo not drawn)
191 to 192 °C | Cc1nnc(-c2nn(-c3cccc(C(F)(F)F)c3)ccc2=O)n1-c1ccccc1
69 to 71 °C | COC(=O)C(O)c1ccccc1[N+](=O)[O-] (stereo not drawn)
124 to 126 °C | Cc1ccc(-c2c(NS(=O)(=O)c3ccc(C(C)(C)C)cc3)nc(NCCO)nc2OCCOCc2ccccc2)cc1
168 to 172 °C | Cc1cc(-c2c3ccccc3c(Br)c3sc(C)c(C)c23)cc(C)c1OS(=O)(=O)c1ccc(C(=O)OC(C)(C)C)c(O)c1
172 to 173 °C | CCCN(C(=O)OCC(Cl)(Cl)Cl)C1CN(C(=O)Nc2ccc(C(F)(F)F)cc2)N=C1c1ccc(Cl)cc1 (stereo not drawn)
> 260 °C | COc1cc(OC)c2[nH]c3c(C(=O)Nc4ccc(CCN(C)Cc5ccc(OC)c(OC)c5)cc4)cccc3c(=O)c2c1
118 °C | COc1ccc2c(c1OCc1ccccc1)CCN(C=O)C2
130 to 134 °C | Cc1cn(S(C)(=O)=O)c2c1C(=O)CC(c1ccccc1F)C2 (stereo not drawn)
126 to 127 °C | CC(C)(C)c1ccc(OC2CN(C(c3ccccc3)c3ccccc3)C2)cc1
202 to 203 °C | Cc1ccc2c(c1)OC(C(F)(F)F)C(C(=O)O)=C2 (stereo not drawn)
216 to 218 °C | CC(=O)Nc1c(C(=O)c2cc(CO)ccn2)[nH]c2cc(Cl)ccc12
